The record followed here is article PMC6842095 (Neuropharmacology, 2019).

“And” between values parts separate entries of the source, which are not always exact repeats. Equal entries are not always repeated. Where two headings read alike, the source gives them in different places.

For assay [1], the target named is T1, α4 GREFP β2 AChR (Homo sapiens, UniProt P17787+P43681, I229P/K186G/K222F/T220E/Y218R). Type of assay: binding.
For assay [2], the target named is wild type α4β2 AChR (Homo sapiens, UniProt P17787+P43681). Type of assay: binding.
In assay [3] the target is T1, α4 GREFP β2 AChR. The assay can be described thus: Time course of ^125I-α-BTX dissociation. The class given is binding.
The target in assay [4] is T2, α2 GFEP β4 AChR (Homo sapiens, UniProt P30926+Q15822, D246E/I251P/K208G/K244F). The assay can be described thus: Time course of ^125I-α-BTX dissociation. Type of assay: binding.
T2 sequence (P30926 22-498, stated change not applied): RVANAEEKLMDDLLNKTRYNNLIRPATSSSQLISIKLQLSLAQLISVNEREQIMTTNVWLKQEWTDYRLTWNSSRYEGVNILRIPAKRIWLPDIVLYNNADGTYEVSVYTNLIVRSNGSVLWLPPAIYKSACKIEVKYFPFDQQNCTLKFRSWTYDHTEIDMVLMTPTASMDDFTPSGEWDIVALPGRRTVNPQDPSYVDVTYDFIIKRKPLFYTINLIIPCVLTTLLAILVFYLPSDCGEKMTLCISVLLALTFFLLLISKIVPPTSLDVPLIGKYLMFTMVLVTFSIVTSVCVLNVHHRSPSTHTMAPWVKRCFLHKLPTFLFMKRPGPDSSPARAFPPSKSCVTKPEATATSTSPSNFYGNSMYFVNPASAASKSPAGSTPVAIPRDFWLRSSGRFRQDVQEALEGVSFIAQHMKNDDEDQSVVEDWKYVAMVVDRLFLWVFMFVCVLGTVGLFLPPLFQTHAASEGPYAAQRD
T2 sequence (Q15822 27-529 K208G/K244F/D246E/I251P): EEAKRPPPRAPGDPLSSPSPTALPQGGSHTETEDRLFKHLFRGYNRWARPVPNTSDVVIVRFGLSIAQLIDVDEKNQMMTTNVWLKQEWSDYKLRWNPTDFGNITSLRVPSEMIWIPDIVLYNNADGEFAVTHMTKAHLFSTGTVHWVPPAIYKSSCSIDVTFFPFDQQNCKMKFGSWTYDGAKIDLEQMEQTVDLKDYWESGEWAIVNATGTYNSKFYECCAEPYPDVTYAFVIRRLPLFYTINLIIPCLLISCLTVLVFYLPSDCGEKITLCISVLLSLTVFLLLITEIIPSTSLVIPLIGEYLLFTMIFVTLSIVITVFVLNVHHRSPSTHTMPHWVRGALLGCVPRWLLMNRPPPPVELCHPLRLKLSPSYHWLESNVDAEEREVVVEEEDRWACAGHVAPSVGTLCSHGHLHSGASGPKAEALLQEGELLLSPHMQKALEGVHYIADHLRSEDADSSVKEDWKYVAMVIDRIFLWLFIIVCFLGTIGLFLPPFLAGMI
In assay [5] the target is α2 GFEP β2 AChR (Homo sapiens, UniProt P17787+Q15822, D246E/I251P/K208G/K244F). Type of assay: binding.
Sequence of α2 GFEP β2 AChR (P17787 26-502 limits assumed, stated change not applied): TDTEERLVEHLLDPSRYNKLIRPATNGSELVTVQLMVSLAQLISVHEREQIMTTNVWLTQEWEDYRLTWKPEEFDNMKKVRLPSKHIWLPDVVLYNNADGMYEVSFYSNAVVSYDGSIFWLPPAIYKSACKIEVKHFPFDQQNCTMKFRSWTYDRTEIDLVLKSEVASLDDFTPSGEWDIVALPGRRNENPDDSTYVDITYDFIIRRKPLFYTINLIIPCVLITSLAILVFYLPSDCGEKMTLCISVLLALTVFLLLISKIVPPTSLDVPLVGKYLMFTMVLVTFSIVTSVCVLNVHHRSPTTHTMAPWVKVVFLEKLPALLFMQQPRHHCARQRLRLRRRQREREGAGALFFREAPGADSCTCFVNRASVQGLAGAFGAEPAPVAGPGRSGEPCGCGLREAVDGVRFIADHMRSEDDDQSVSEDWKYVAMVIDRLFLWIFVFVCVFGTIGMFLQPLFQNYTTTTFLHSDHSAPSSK
Sequence of α2 GFEP β2 AChR (Q15822 27-529 K208G/K244F/D246E/I251P limits assumed, stated change not applied): as the sequence (Q15822 27-529 K208G/K244F/D246E/I251P) above
In assay [6] the target is T3, α4 GREFP β4 AChR (Homo sapiens, UniProt P30926+P43681, I229P/K186G/K222F/T220E/Y218R). The assay can be described thus: Time course of ^125I-α-BTX dissociation. The class given is binding.
T3 sequence (P30926 22-498): as the sequence (P30926 22-498, stated change not applied) above
T3 sequence (P43681 29-627 K186G/Y218R/T220E/K222F/I229P): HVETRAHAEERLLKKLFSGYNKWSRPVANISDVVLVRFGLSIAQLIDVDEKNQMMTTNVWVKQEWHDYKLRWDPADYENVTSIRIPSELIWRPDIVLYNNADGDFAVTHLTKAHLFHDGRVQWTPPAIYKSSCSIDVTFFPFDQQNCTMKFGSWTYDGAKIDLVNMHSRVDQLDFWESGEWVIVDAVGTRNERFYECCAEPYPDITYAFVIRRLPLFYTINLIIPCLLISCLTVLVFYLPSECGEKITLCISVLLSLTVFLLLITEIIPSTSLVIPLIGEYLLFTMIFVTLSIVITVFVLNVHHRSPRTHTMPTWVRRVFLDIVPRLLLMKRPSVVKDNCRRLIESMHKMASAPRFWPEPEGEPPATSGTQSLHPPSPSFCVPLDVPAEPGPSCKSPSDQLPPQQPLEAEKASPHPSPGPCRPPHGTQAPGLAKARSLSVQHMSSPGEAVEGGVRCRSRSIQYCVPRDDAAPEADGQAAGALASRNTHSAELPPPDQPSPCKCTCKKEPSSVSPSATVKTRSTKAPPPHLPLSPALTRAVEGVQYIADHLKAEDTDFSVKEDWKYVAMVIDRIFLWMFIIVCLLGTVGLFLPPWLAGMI
The target of assay [7] is α7 AChR (Homo sapiens, UniProt P36544). The class given is binding.
Sequence of α7 AChR (P36544 23-502 limits assumed): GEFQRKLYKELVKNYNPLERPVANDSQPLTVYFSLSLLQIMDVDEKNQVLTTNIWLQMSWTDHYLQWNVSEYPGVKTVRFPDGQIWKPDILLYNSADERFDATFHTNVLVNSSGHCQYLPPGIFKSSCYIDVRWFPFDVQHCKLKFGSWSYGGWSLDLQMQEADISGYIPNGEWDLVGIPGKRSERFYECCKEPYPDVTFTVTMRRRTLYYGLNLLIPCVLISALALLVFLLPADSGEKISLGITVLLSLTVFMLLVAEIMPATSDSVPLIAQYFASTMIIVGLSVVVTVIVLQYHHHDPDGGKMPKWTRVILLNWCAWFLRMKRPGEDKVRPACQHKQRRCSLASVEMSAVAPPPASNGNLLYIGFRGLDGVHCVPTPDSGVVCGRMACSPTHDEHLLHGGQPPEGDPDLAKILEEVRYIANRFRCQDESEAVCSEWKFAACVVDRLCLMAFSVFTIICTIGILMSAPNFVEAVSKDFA
Assay [8] has as its target muscle AChR (α1, β, ε, δ) (Homo sapiens, UniProt P02708+Q04844+Q07001). Type of assay: binding.
The target in assay [9] is T4, α3 GFEP β4 AChR (Homo sapiens, UniProt P30926+P32297, I227P/K184G/K220F/N222E). The assay can be described thus: Time course of ^125I-α-BTX dissociation. The class given is binding.
T4 sequence (P32297 32-505 K184G/K220F/N222E/I227P): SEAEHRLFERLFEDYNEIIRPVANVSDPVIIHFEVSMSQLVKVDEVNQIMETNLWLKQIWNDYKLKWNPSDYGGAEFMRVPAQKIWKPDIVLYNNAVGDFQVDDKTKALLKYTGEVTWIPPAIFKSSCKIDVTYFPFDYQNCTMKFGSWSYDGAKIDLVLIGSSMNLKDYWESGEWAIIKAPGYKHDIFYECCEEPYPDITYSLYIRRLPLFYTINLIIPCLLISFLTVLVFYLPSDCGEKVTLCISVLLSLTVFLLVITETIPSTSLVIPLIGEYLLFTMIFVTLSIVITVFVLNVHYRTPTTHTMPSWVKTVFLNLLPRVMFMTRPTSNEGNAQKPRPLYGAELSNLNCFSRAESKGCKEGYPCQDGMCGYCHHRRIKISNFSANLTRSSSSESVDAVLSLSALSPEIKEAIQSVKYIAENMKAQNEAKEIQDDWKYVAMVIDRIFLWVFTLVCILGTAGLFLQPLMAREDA
T4 sequence (P30926 22-498, stated change not applied): as the sequence (P30926 22-498, stated change not applied) above
Assay [10] has as its target T2, α2 GFEP β4 AChR. The assay can be described thus: cell-based.
For assay [11], the target named is T2, α2 GFEP β4 AChR.
The target of assay [12] is T4, α3 GFEP β4 AChR.
Assay [13] has as its target T3, α4 GREFP β4 AChR.

T1 sequence (P43681 29-627 K186G/Y218R/T220E/K222F/I229P): as the sequence (P43681 29-627 K186G/Y218R/T220E/K222F/I229P) above
T1 sequence (P17787 26-502, stated change not applied): as the sequence (P17787 26-502 limits assumed, stated change not applied) above
Sequence of muscle AChR (α1, β, ε, δ) (P02708 21-457 limits assumed): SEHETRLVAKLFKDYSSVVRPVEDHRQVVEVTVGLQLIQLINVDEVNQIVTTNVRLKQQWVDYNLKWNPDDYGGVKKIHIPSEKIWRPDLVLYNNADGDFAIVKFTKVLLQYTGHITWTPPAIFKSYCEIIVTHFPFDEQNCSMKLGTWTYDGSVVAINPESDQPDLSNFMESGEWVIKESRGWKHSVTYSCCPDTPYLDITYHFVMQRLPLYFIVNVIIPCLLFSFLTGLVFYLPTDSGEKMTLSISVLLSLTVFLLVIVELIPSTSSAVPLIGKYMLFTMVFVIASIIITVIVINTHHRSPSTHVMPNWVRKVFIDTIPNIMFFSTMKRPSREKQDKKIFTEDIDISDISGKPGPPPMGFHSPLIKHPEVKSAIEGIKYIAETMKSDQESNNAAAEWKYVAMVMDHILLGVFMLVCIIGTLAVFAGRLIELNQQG
Sequence of muscle AChR (α1, β, ε, δ) (Q04844 21-493 limits assumed): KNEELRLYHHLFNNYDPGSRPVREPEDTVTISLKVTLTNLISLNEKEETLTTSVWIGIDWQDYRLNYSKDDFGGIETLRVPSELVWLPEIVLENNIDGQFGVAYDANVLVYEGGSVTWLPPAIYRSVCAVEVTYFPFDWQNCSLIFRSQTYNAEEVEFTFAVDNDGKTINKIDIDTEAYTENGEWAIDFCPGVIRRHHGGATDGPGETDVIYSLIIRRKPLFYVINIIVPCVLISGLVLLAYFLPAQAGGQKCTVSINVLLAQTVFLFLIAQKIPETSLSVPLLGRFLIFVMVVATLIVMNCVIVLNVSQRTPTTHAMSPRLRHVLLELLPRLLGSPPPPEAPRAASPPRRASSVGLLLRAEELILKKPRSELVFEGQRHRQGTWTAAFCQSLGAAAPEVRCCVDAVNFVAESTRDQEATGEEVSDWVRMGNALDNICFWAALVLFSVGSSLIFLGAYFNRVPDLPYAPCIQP
Sequence of muscle AChR (α1, β, ε, δ) (Q07001 22-517 limits assumed): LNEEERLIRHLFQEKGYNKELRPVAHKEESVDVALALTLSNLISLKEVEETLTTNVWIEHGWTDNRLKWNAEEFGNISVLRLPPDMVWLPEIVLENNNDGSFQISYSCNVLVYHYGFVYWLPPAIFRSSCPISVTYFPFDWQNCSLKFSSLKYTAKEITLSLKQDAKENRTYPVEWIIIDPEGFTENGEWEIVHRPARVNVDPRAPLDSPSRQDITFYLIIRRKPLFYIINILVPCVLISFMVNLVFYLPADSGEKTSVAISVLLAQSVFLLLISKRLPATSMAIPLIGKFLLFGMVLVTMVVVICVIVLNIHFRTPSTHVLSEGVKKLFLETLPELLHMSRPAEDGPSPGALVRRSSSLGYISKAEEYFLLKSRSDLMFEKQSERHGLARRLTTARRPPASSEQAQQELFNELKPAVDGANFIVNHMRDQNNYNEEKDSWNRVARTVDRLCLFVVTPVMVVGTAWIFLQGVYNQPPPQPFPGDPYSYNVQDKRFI

With `Clc1ccc(C2CC3CCC2N3)cn1` (racemic) [Epibatidine, (±) epibatidine], in assay [1] (α4 GREFP + β2, ± S.E.), the “nH (Hill coefficient)” value was found to be 1.3 ± 0.1.
For `CC(=O)OCC[N+](C)(C)C` [ACh, Acetylcholine], the “nH (Hill coefficient)” value in [1] turned out to be 0.81 ± 0.07.
For α-bungarotoxin [α-BTX], the “affinity for the toxin (ratio of total to nonspecific binding close to one)” value in assay [2] is “negligible affinity”. Moreover, the Half-life in assay [3] worked out at 12.6 h; in assay [4] it was 9.6 h; in [5], 6.0 h; in [6] it was 19 h; in assay [7], 133 h; in assay [8] it was 5.4 h. The same compound came in with a Half-life in assay [9] of 77 h. The “dissociation constant from ratio of dissociation to association rate constants” value in assay [3] was 0.3 nM. Moreover, the kdissoc in assay [3] was 1.5 × 10^−5 s^−1 and 1.5 ± 0.2 × 10^−5 s^−1; in assay [4], 2.0 ± 0.3 × 10^−5 s^−1; in [5] it was 3.2 ± 0.3 × 10^−5 s^−1; in assay [6], 1.0 ± 0.1 × 10^−5 s^−1; in assay [7], 1.5 ± 0.3 × 10^−6 s^−1; in assay [8], 3.5 ± 0.4 × 10^−5 s^−1. Also, the kdissoc in assay [9] is given as 2.5 ± 0.9 × 10^−6 s^−1.
For orientation: Kd means the constant that tells how readily two partners part at equilibrium. Low values mean tighter binding, high ones weaker binding. In the case of `CN1CCC[C@H]1c1cccnc1` [Nicotine, (−)nicotine], in [10], the Kd was found to be 0.21 µM. Moreover, the “nH (Hill coefficient)” value amounted to 0.96 ± 0.1 in [11], 1.4 ± 0.1 in assay [1], 0.75 ± 0.1 in assay [12] and 0.80 ± 0.1 in assay [13].
